The values that follow come from patent US4939142A, “Substituted styrene derivatives” (priority 1989, dated 1990).

One data set can be described thus: in vivo. The note with it: mouse, in vivo, po. The procedure: Male and female white mice (CFLP strain, 18-22 g) are used, 10 animals per dose. The test compounds are administered orally in a volume of 20 ml/kg. After administration the mice are observed for a period of 7 days. The animals are kept in plastic boxes, on wood litter, at room temperature. The animals receive standard mouse fodder and tap water ad libitum.

The subject of another data set is pentetrazole spasm. The data set is described as follows: Inhibition of pentetrazol spasm on mice. The note with it: for ED50: Mus musculus, po; for Therapeutical index: Table V, pentetrazole spasm, LD50/ED50.
The subject of a further data set is yohimbin toxicity. The data set is described as follows: animal or person. The note with it: for ED50: Mus musculus; for Therapeutical index: Table IV, yohimbin toxicity, LD50/ED50. The procedure: The test is carried out according to the method of Quinton. Groups consisting of 10 mice are used for each dose. The animal groups are treated with the suitable doses of the test compounds while the control group is treated with a carrier. An hour after the treatment a sublethal dose of yohimbin is administered intraperitoneally in a volume of 20 ml/kg. The perished animals are counted after 1 and 24 hours.

The next data set deals with motility. The data set is described as follows: animal or person. The note with it: for ED50: Mus musculus, po; for Therapeutical index: Table II, motility inhibition, LD50/ED50. The format is in vivo. The procedure:
The test is accomplished according to the method of Borsy et al. in a 10-channel Dews system equipment, whereby 3 mice are used per channel. The test compound or the carrier, respectively, is administered orally, and one hour after the said treatment the animals are placed into the apparatus and the number of the interruptions of infrared radiation is registered for 30 minutes.
The results are summarized in Table II and documented by means of suitable statistics for each experiment.
[J. Borsy, E. Csanyi, I. Lazar: Arch. Int. Pharmacodyn. 124, 1 (1960)].

The subject of another data set is acetic acid writhing. The data set is described as follows: Acetic acid "writhing test" on mice (Newbould). The format is in vivo, white mice. The note with it: for ED50: Mus musculus; for Therapeutical index: acetic acid writhing, LD50/ED50. How it is done:
In the period between the 5th and 10th minutes following the administration of acetic acid the number of the characteristic "writhing" responses is counted for each animal and the "total writhing number" (within 5 minutes) is expressed as the percentage of the value obtained for the control animals. The mice are treated with the test compound and the carrier, respectively, orally 1 hour before the administration of acetic acid. 12 animals are used per dose.
[Newbould, B. D.: Brit.
Background: Writhing tests count abdominal constrictions after an irritant is injected.

The next data set concerns hexobarbital narcosis. The data set is described as follows: Hexobarbital narcosis potentiating effect. The settings on record: for ED50: Mus musculus, po; for Therapeutical index LD50 /ED50: Table I, hexobarbital narcosis.
The test system of data set [1] is nicotine spasm and lethality. The data set is described as follows: Inhibition of nicotine spasm and lethality on mice (Stone). The format is in vivo. The settings on record: Table VIII; for ED50: Mus musculus, oral, 1 h before nicotine 1.4 mg/kg i.v.; for Therapeutical index: nicotine spasm and lethality, LD50/ED50. An excerpt:
[Stone, C. C., Mecklenburg, K. L., Torchiana, M. L.: Arch. Int.

Where [2] appears, read: Table VII, oral, 1 h before acetic acid i.p., read-out: ED50.

Structures are written as SMILES. Like-named read-outs stand apart in the source and are kept apart here.

Procedure for hexobarbital narcosis: The test is carried out on white mice. Groups consisting of six mice are used for each dose and test compound. The test compound is administered orally and an hour after this treatment narcosis is induced by means of a 40 mg/kg i.v. dose of hexobarbital. The control group receives carrier instead of the test compound.
Those mice are considered to be having a positive reaction which show a narcosis time at least 2.5 times longer than that of the control group. The ED50 values thus transformed are calculated.
Procedure for pentetrazole spasm: The modified method of Benziger and Hane is used on white mice. Groups consisting of 6 animals are used for each dose. […] The test compounds are administered orally one hour before the treatment with pentetrazole; in the control group the animals obtain the carrier orally at the same points of time.
The therapeutical index data disclosed in the above Tables are calculated by means of the following equation: [formula]

In general, LD50 refers to the dose expected to kill half of the subjects tested. A low value points to greater toxicity. Broadly, the ED50 is the midpoint of the dose-response relation. In “in vivo”, `CN(C)CCCO/N=C1C=C(/C=C/c2ccccc2Cl)CC(C)(C)C/1` [Example 9, 5,5-Dimethyl-3-(E)-[(2'-chloro-phenyl)-vinyl]-1-(E)-(3"-dimethylamino-propoxyimino)-2-cyclohexene] had an LD50 at 168 h of 2000 mg/kg. Moreover, the ED50 with pentetrazole spasm worked out at 160 mg/kg; with yohimbin toxicity, 50 mg/kg. Further, the Therapeutical index in the data set on pentetrazole spasm is listed as 12.5; in the data set with yohimbin toxicity, 40.

In the data set “in vivo”, `COc1ccc(/C=C/C2=CC(=N/OCC(C)CN(C)C)/CC(C)(C)C2)cc1` (racemic) [Example 25, D,L-5,5-Dimethyl-3-(E)-[(4'-methoxy-phenyl)-vinyl]-1-(E)-(2"-methyl-3"-dimethylamino-propoxyimino)-2-cyclohexane] came in with an LD50 at 168 h of 1300 mg/kg. Besides, the ED50 was 15.5 mg/kg in the data set on pentetrazole spasm, about 200 mg/kg with motility and about 200 mg/kg in the data set on acetic acid writhing (po). Also, the Therapeutical index with pentetrazole spasm worked out at 83.9; in the data set on motility, 6.5; in the data set with acetic acid writhing (Table VII), 65.

In the data set with motility, `CCCC(C)(COC(N)=O)COC(N)=O` [Meprobamate, reference compound] displayed an ED50 of 270 mg/kg. Further, in the data set with hexobarbital narcosis, the ED50 came to 260 mg/kg and the “Therapeutical index LD50 /ED50” value stood at 4.2.

In the data set “in vivo”, `CC(C)N(CCO/N=C1C=C(/C=C/c2ccc(Cl)cc2)CC(C)(C)C/1)C(C)C` [Example 14, 5,5-Dimethyl-3-(E)-[(4'-chloro-phenyl)-vinyl]-1-(E)-2'"-[bis-(2"-methyl-ethyl)-amino-ethoxyimino]-2-cyclohexene] showed an LD50 at 168 h of 2000 mg/kg. In the data set on pentetrazole spasm, the ED50 worked out at 70 mg/kg and the Therapeutical index came to 28.5.

With `CC(=O)Nc1ccc(O)cc1` [Paracetamol, reference compound], the ED50 with acetic acid writhing (setting [2]) is 180 mg/kg.

With `CCOc1ccccc1OCC1CNCCO1` (stereo not drawn) [Viloxazin, reference compound], in the data set with yohimbin toxicity, the 50% effect level (ED50) was put at a dose of 20 mg/kg.

In “in vivo”, `CN1CCN(CCCO/N=C2C=C(/C=C/c3ccc(Cl)cc3)CC(C)(C)C/2)CC1` [Example 4, 5,5-Dimethyl-3-(E)-[(4'-chloro-phenyl)-vinyl]-1-(E)-(4"-methyl-1"-piperazinyl-propoxyimino)-2-cyclohexene] returned an LD50 at 168 h of 2000 mg/kg. In the data set on pentetrazole spasm, this molecule had an ED50 of 180 mg/kg and a Therapeutical index of 11.1.

Regarding `CN(C)CCCO/N=C1C=C(/C=C/c2ccc(Cl)cc2)CC(C)(C)C/1` [Example 5, 5,5-Dimethyl-3-(E)-[(4'-chloro-phenyl)-vinyl]-1-(E)-(3"-dimethylamino-propoxyimino)-2-cyclohexene], in “in vivo”, the LD50 at 168 h came to 2000 mg/kg. In addition, the results for the ED50 in the data set on pentetrazole spasm, with motility and in the data set on acetic acid writhing (setting [2]) were 125 mg/kg, 120 mg/kg and 155 mg/kg, respectively. For the same molecule, the Therapeutical index is listed as 16.0 in the data set on pentetrazole spasm, 17.0 in the data set on motility and 12.9 with acetic acid writhing (Table VII).

In the data set “in vivo”, `COc1ccc(/C=C/C2=CC(=N/OCCCN(C)C)/CC(C)(C)C2)cc1` [Example 11, 5,5-Dimethyl-3-(E)-[(4'-methoxy-phenyl)-vinyl]-1-(E)-(3"-dimethylamino-propoxyimino)-2-cyclohexene] had a 50% lethal dose (LD50) at 168 h of 2000 mg/kg. Moreover, in the data set with pentetrazole spasm, the ED50 was 78 mg/kg and the Therapeutical index was determined as 25.6. In addition, in the data set with hexobarbital narcosis, the ED50 was found to be 140 mg/kg and the “Therapeutical index LD50 /ED50” value amounted to 14.3. In the data set with yohimbin toxicity, the ED50 worked out at 40 mg/kg and the Therapeutical index turned out to be 50.

With `CC1(C)CC(/C=C/c2ccc(Cl)cc2)=CC(=N/OCCCN2CCOCC2)/C1` [Example 24, 5,5-Dimethyl-3-(E)-[(4'-chloro-phenyl)-vinyl]-1-(E)-(N-morpholino-propoxyimino)-2-cyclohexane], the LD50 at 168 h in “in vivo” is over 1000 mg/kg. In addition, in the data set on pentetrazole spasm, the 50% effect level (ED50) was put at a dose of 110 mg/kg and the Therapeutical index is recorded as over 9.1.

In the case of `CC(C)N(CCO/N=C1C=C(/C=C/c2ccccc2)CC(C)(C)C/1)C(C)C` [Example 12], the LD50 at 168 h in the data set “in vivo” was found to be 1000 mg/kg. In addition, the ED50 amounted to 23 mg/kg with pentetrazole spasm, 100 mg/kg with hexobarbital narcosis and 50 mg/kg in the data set on acetic acid writhing (setting [2]). In addition, the Therapeutical index in the data set with pentetrazole spasm turned out to be 43.5; in the data set on acetic acid writhing (Table VII), 20.0.

`CN(C)CCCN1c2ccccc2CCc2ccccc21` [Imipramin, reference compound] came in with an ED50 with yohimbin toxicity of 21 mg/kg.

As to `CN1CCN(CCCO/N=C2C=C(/C=C/c3ccccc3)CC(C)(C)C/2)CC1` [Example 2, 5,5-Dimethyl-3-(E)-phenyl-vinyl-1-(E)-(4'-methyl-1'-piperazinyl-propoxyimino)-2-cyclohexene], in “in vivo”, the LD50 at 168 h was 2000 mg/kg. In addition, the median effective dose (ED50) with pentetrazole spasm worked out at 140 mg/kg; in the data set with motility it was 190 mg/kg; in data set [1] it was 78 mg/kg. The Therapeutical index with pentetrazole spasm was determined as 14.3; in the data set on motility, 10.5; in data set [1] it was 25.6.

`CN(C)CCO/N=C1C=C(/C=C/c2ccc(Cl)cc2)CC(C)(C)C/1` [Example 15, 5,5-Dimethyl-3-(E)-[(4'-chloro-phenyl)-vinyl]-1-(E)-(2"-dimethylamino-ethoxyimino)-cyclohexene]: the LD50 at 168 h in “in vivo” stood at 2000 mg/kg. For the same molecule, in the data set with pentetrazole spasm, it took a dose of 120 mg/kg to reach the 50% effect level (ED50) and the Therapeutical index is recorded as 16.6. Further, in the data set on hexobarbital narcosis, the ED50 is 25 mg/kg and the “Therapeutical index LD50 /ED50” value was 80.0. In data set [1], the ED50 was 70 mg/kg and the Therapeutical index was found to be 28.6.

Consider `CCN(CC)CCO/N=C1C=C(/C=C/c2ccc(OC)cc2)CC(C)(C)C/1` [Example 23, 5,5-Dimethyl-3-(E)-[(4'-methoxy-phenyl)-vinyl]-1-(E)-(2"-diethylamino-ethoxyimino)-2-cyclohexene], for which the LD50 at 168 h in “in vivo” was 1000 mg/kg. In the data set with pentetrazole spasm, this molecule registered an ED50 of 58 mg/kg and a Therapeutical index of 17.2.

`CC1(C)CC(/C=C/c2ccccc2)=CC(=N/OCCN2CCOCC2)/C1` [Example 17, 5,5-Dimethyl-3-(E)-phenyl-vinyl-1-(E)-(N-morpholino-ethoxyimino)-2-cyclohexene] yielded an LD50 at 168 h in the data set “in vivo” of 1600 mg/kg. In addition, in the data set with pentetrazole spasm, the ED50 was 148 mg/kg and the Therapeutical index came out at 10.8. In the data set on hexobarbital narcosis, the ED50 was 13 mg/kg and the “Therapeutical index LD50 /ED50” value came out at 123.0. In data set [1], this molecule returned an ED50 of 40 mg/kg and a Therapeutical index of 40.0.

For the molecule `CNC1=Nc2ccc(Cl)cc2C(c2ccccc2)=[N+]([O-])C1` [Chlordiazepoxid, reference compound], in the data set “in vivo”, the LD50 at 168 h is 620 mg/kg. In addition, in the data set on hexobarbital narcosis, the ED50 was determined as 10 mg/kg and the “Therapeutical index LD50 /ED50” value came to 62.0.

Turning to `OC(CCN1CCCCC1)(c1ccccc1)C1CCCCC1` (stereo not drawn) [Trihexyphenidyl, reference compound], the 50% effect level in data set [1] (ED50) was put at a dose of 20 mg/kg.

Take `CC1(C)CC(/C=C/c2ccccc2)=CC(=N/OCCN2CCCCC2)/C1` [Example 16, 5,5-Dimethyl-3-(E)-phenyl-vinyl-1-(E)-(2'-N-piperidyl-ethyl)-oxyimino-2-cyclohexene]: in “in vivo”, the LD50 at 168 h came out at 1850 mg/kg. Also, the ED50 in the data set on pentetrazole spasm stood at 185 mg/kg; in the data set on motility it was 150 mg/kg; with hexobarbital narcosis, 40 mg/kg; in data set [1] it was 70 mg/kg. For the same molecule, the Therapeutical index stood at 10.0 with pentetrazole spasm, 12.3 in the data set with motility and 26.4 in data set [1]. Further, the “Therapeutical index LD50 /ED50” value in the data set with hexobarbital narcosis stood at 46.0.
